# From ChEMBL document CHEMBL2040805, “Cyclotides from an extreme habitat: characterization of cyclic peptides from Viola abyssinica of the Ethiopian highlands” (J Nat Prod, 2011)
# Tested on: U-937/GTB
# Assay: Cytotoxicity against human U937/GTB cells after 72 hrs by fluorometric microculture cytotoxicity assay
# Format: functional, cell-based
row,Compound,IC50 [µM]
1,CC(C)C[C@@H]1NC(=O)CNC(=O)[C@H](CC(N)=O)NC(=O)[C@H](CCCNC(=N)N)NC(=O)[C@H]([C@@H](C)O)NC(=O)[C@@H]2CSSC[C@@H]3NC(=O)[C@H]([C@@H](C)O)NC(=O)CNC(=O)CNC(=O)[C@H](Cc4ccccc4)NC(=O)[C@@H]4CSSC[C@H](NC(=O)[C@H]([C@@H](C)O)NC(=O)[C@H](CSSC[C@H](NC(=O)[C@H](C(C)C)NC(=O)[C@@H]5CCCN5C1=O)C(=O)NCC(=O)N[C@@H](CCC(=O)O)C(=O)N[C@H]([C@@H](C)O)CN4)NC(=O)CNC(=O)[C@@H]1CCCN1C(=O)[C@H]([C@@H](C)O)NC(=O)[C@H](CC(N)=O)NC3=O)C(=O)N[C@@H](CC(=O)O)C(=O)N1CCC[C@H]1C(=O)N[C@@H](Cc1c[nH]c3ccccc13)C(=O)N1CCC[C@H]1C(=O)N[C@@H](C(C)C)C(=O)N2,2.6
2,COc1cccc2c1C(=O)c1c(O)c3c(c(O)c1C2=O)C[C@@](O)(C(=O)CO)C[C@@H]3O[C@H]1C[C@H](N)[C@H](O)[C@H](C)O1 [DOXORUBICIN],0.16
3,CC[C@H](C)[C@@H]1NC(=O)[C@@H]2CCCN2C(=O)[C@H](Cc2c[nH]c3ccccc23)NC(=O)[C@H](CO)NC(=O)[C@@H]2CSSC[C@@H]3NC(=O)[C@H]([C@@H](C)O)NC(=O)[C@H](CCC(=O)O)NC(=O)CNC(=O)[C@@H]4CSSC[C@H](NC(=O)CNC(=O)[C@@H]5CCCN5C(=O)[C@H]([C@@H](C)O)NC(=O)[C@H](CC(N)=O)NC(=O)[C@H](CSSC[C@H](NC1=O)C(=O)N[C@@H]([C@@H](C)O)C(=O)N[C@@H](CCCNC(=N)N)C(=O)N[C@@H](CC(N)=O)C(=O)NCC(=O)N[C@@H](CC(C)C)C(=O)N1CCC[C@H]1C(=O)N[C@@H](C(C)C)C(=O)N4)NC(=O)[C@H]([C@@H](C)O)NC(=O)CNC(=O)CNC(=O)[C@H](C)NC3=O)C(=O)N[C@@H](CO)C(=O)N2,7.6
